Where a SMILES comes first, the peptide text is derived from it. The star is where a group is joined. CHN2 = [N-]=[N+]=C*
System: PC12 cells
Assay: KCN-induced necrosis of PC12 cells, LDH release
Type: cell-based, rat
Settings: for inhibition at 1 µM / inhibition at 0.01 µM / inhibition at 0.1 µM / inhibition at 0.0001 µM / inhibition at 0.001 µM: Rattus norvegicus, PC-12, 5 h, KCN, PC12, LDH release (Table 5); for inhibition at 1 µM: read-out: % protection at 1 μM; for inhibition at 0.01 µM / % protection at indicated concentration 10 nM: 10 nM; for inhibition at 0.01 µM: read-out: % protection At 10 nM; for inhibition at 0.1 µM: read-out: % protection at 0.1 μM; for % protection at indicated concentration 0.1 nM / % protection at indicated concentration 1 nM / % protection at indicated concentration 10 nM / % protection at indicated concentration 100 nM / % protection at indicated concentration 1 μM: KCN-induced necrosis (Table 2); for % protection at indicated concentration 0.1 nM / inhibition at 0.0001 µM: 0.1 nM; for inhibition at 0.0001 µM: read-out: % protection at 0.1 nM; for % protection at indicated concentration 1 nM / inhibition at 0.001 µM: 1 nM; for inhibition at 0.001 µM: read-out: % protection at 1 nM
Method: The rat pheochromocytoma PC12 cell line was propagated in DMEM medium (Beit Haemek, Israel), supplemented with 5% heat-inactivated calf serum, 10% heat-inactivated horse serum, 2 mM L-glutamine, 100 U/ml penicillin and 100 μg/ml streptomycin. PC12 cells in logarithmic phase were seeded at a concentration of 1.2×10^5/well in 96-well plates and incubated overnight.
Thereafter, the cells were washed twice and maintained in RPMI-1640 (U-937cells) and DMEM (PC-12 cells) glucose-free medium, supplemented with 2 mM pyruvate and 10% dialyzed FCS for one hour. Then cells were treated with or without KCN (Merck, Germany) at the indicated concentrations for 7 hours (U-937 cells), or for 5 hours (PC12 cells).
Elastase inhibitors II (MeOSuc-AAPA-CMK) and elastase inhibitor III (MeOSuc-AAPV-CMK) were purchased from Calbiochem-Novabiochem, USA. Compound Gly-Phe diazomethylketone was purchased from MP Biomedicals, USA. All the compounds disclosed in Table 1 hereinabove were purchased from ChemDiv, San Diego, CA. The compounds were dissolved in DMSO and were administered 30 min before addition of the cell death inducer. The final concentration of DMSO, added to all samples, was 0.1%, which had no effect by itself siRNA and cell transfection
The amount of LDH released from lysed cells is a sensitive measure of cell death. Necrotic cell death was measured in 96-well plates using Promega CytoTox 96 LDH assay kit. LDH content from the cells lysed in 0.1% Triton X-100 for 10 min was used as an index of total LDH. The LDH released in culture medium was used as an index of necrotic cell death and the percentage from total LDH was calculated. The protection by the inhibitor was calculated based on comparing percentage of LDH release in the presence and in the absence of the inhibitor. The inhibitors were also added to totals, blanks and controls. Absorbance at 490 nm was measured by ELISA reader (BioTec).
These compounds were tested for their ability to inhibit necrosis induced by KCN in PC12 cells. The necrotic mode of cell death in this system was validated as previously described. PC12 cells were challenged with KCN as described above. The protective results of the compounds against KCN-induced necrosis assessed using LDH release method are shown below in Table 5. The IC50 values of these inhibitors is in the range of tens to single nanomolar.

COc1cc(C(=O)n2nc(C)cc2C)cc(OC)c1OC [3346-3249, (3,5-dimethyl-1H-pyrazol-1-yl)(3,4,5-trimethoxyphenyl)methanone]
inhibition at 1 µM: 52%

O=C(O)c1cccc(S(=O)(=O)N2CCCC2)c1 [3506-0172, 3-(pyrrolidin-1-ylsulfonyl)benzoic acid]
inhibition at 0.01 µM: 18%
inhibition at 0.1 µM: 19%
inhibition at 1 µM: 52%

COc1cc(OC)cc(-c2nc3ccc(Br)cc3c(=O)o2)c1 [3952-1000, 6-bromo-2-(3,5-dimethoxyphenyl)-4H-benzo[d][1,3]oxazin-4-one]
% protection at indicated concentration 0.1 nM: 35%
% protection at indicated concentration 1 nM: 33%
% protection at indicated concentration 10 nM: 38%
% protection at indicated concentration 100 nM: 35%
% protection at indicated concentration 1 μM: 77%
inhibition at 0.0001 µM: 35%
inhibition at 0.001 µM: 33%
inhibition at 0.01 µM: 38%
inhibition at 0.1 µM: 35%
inhibition at 1 µM: 77%

CN(C)c1ccc(Nc2nc(-c3ccc(Cl)cc3)cs2)cc1 [4112-3656, N1-(4-(4-chlorophenyl)thiazol-2-yl)-N4,N4-dimethylbenzene-1,4-diamine]
% protection at indicated concentration 0.1 nM: 30%
% protection at indicated concentration 1 nM: 25%
% protection at indicated concentration 10 nM: 55%
% protection at indicated concentration 100 nM: 73%
% protection at indicated concentration 1 μM: 77%
inhibition at 0.0001 µM: 30%
inhibition at 0.001 µM: 25%
inhibition at 0.01 µM: 55%
inhibition at 0.1 µM: 73%
inhibition at 1 µM: 77%

CC(=O)Oc1ccc2nc(-c3cccc(Br)c3)oc(=O)c2c1 [4334-1600, 2-(3-bromophenyl)-4-oxo-4H-benzo[d][1,3]oxazin-6-yl acetate]
% protection at indicated concentration 0.1 nM: 28%
% protection at indicated concentration 1 nM: 30%
% protection at indicated concentration 10 nM: 28%
% protection at indicated concentration 100 nM: 70%
% protection at indicated concentration 1 μM: 74%
inhibition at 0.0001 µM: 28%
inhibition at 0.001 µM: 30%
inhibition at 0.01 µM: 28%
inhibition at 0.1 µM: 71%
inhibition at 1 µM: 74%

Cn1c(-c2c(C(C)(C)C)oc3cc(OC(=O)C(C)(C)C)ccc3c2=O)nc2ccccc21 [4356-0595, 2-(tert-butyl)-3-(1-methyl-1H-benzo[d]imidazol-2-yl)-4-oxo-4H-chromen-7-yl pivalate]
inhibition at 0.0001 µM: 4%
inhibition at 0.001 µM: 21%
inhibition at 0.01 µM: 36%
inhibition at 0.1 µM: 57%
inhibition at 1 µM: 69%

O=c1oc(-c2ccco2)nc2sc3c(c12)CCCC3 [4789-3852, 2-(furan-2-yl)-5,6,7,8-tetrahydro-4H-benzo[4,5]thieno[2,3-d][1,3]oxazin-4-one]
inhibition at 0.0001 µM: 18%
inhibition at 0.001 µM: 25%
inhibition at 0.01 µM: 55%
inhibition at 0.1 µM: 61%
inhibition at 1 µM: 81%

c1ccc(-c2noc(CC3CCCCC3)n2)nc1 [4953-1443, 5-(cyclohexylmethyl)-3-(pyridin-2-yl)-1,2,4-oxadiazole]
inhibition at 1 µM: 51%

CCOC(=O)CN1C(=O)c2ccccc2S1(=O)=O [5149-0030, Ethyl-2,3-dihydro-3-oxo-1,2-benzisothiazole-2-acetate-1,1-dioxide]
% protection at indicated concentration 0.1 nM: 19%
% protection at indicated concentration 1 nM: 25%
% protection at indicated concentration 10 nM: 35%
% protection at indicated concentration 100 nM: 68%
% protection at indicated concentration 1 μM: 80%
inhibition at 0.0001 µM: 19%
inhibition at 0.001 µM: 25%
inhibition at 0.01 µM: 35%
inhibition at 0.1 µM: 68%
inhibition at 1 µM: 80%

O=C(O)Cn1nnc(-c2ccncc2)n1 [8018-2960, 2-(5-(pyridin-4-yl)-2H-tetrazol-2-yl)acetic acid]
inhibition at 0.0001 µM: 38%
inhibition at 0.001 µM: 25%
inhibition at 0.01 µM: 54%
inhibition at 0.1 µM: 80%
inhibition at 1 µM: 84%

O=C(NCCNC(=O)c1nc(Cn2cc(Cl)cn2)no1)c1cccc(F)c1 [8019-5381, 3-((4-chloro-1H-pyrazol-1-yl)methyl)-N-(2-(3-fluorobenzamido)ethyl)-1,2,4-oxadiazole-5-carboxamide]
inhibition at 0.01 µM: 32%
inhibition at 0.1 µM: 49%
inhibition at 1 µM: 56%

CC1Cc2ccccc2N1S(=O)(=O)c1ccc(C(=O)O)cc1 (stereo not shown) [D216-0746, 4-((2-methylindolin-1-yl)sulfonyl)benzoic acid]
inhibition at 0.0001 µM: 29%
inhibition at 0.001 µM: 37%
inhibition at 0.01 µM: 47%
inhibition at 0.1 µM: 84%
inhibition at 1 µM: 90%

Cn1c(=O)[nH]c(=O)c2[nH]c(N3CCCCC3)nc21 [D226-0031, 3-methyl-8-(piperidin-1-yl)-1H-purine-2,6(3H,7H)-dione]
inhibition at 0.0001 µM: 29%
inhibition at 0.001 µM: 26%
inhibition at 0.01 µM: 43%
inhibition at 0.1 µM: 37%
inhibition at 1 µM: 65%

CCOC(=O)C1=C(C)N(CC(=O)NCc2ccc(C)cc2)c2ncnn2C1c1ccccc1 (stereo not shown) [D529-0049, ethyl 5-methyl-4-(2-((4-methylbenzyl)amino)-2-oxoethyl)-7-phenyl-4,7-dihydro-[1,2,4]triazolo[1,5-a]pyrimidine-6-carboxylate]
inhibition at 0.01 µM: 33%
inhibition at 0.1 µM: 42%
inhibition at 1 µM: 51%

CCn1c2ccccc2c2nnc(NCc3ccccn3)nc21 [E205-0066, 5-ethyl-N-(pyridin-2-ylmethyl)-5H-[1,2,4]triazino[5,6-b]indol-3-amine]
inhibition at 0.01 µM: 18%
inhibition at 0.1 µM: 32%
inhibition at 1 µM: 58%

Cc1[nH]c(=O)[nH]c(=O)c1S(=O)(=O)N1CCCCC1C (stereo not shown) [E214-0380, 6-methyl-5-((2-methylpiperidin-1-yl)sulfonyl)pyrimidine-2,4(1H,3H)-dione]
inhibition at 0.0001 µM: 18%
inhibition at 0.001 µM: 21%
inhibition at 0.01 µM: 39%
inhibition at 0.1 µM: 51%
inhibition at 1 µM: 83%

CCc1ccccc1S(=O)(=O)Nc1ccc(N2CCN(CC)CC2)cc1C(=O)O [F684-0507, 2-(2-ethylphenylsulfonamido)-5-(4-ethylpiperazin-1-yl)benzoic acid]
inhibition at 1 µM: 56%

Nc1ncc(S(=O)(=O)Nc2ccc(F)cc2F)cn1 [G830-0845, 2-amino-N-(2,4-difluorophenyl)pyrimidine-5-sulfonamide]
inhibition at 1 µM: 54%

[N-]=[N+]=CC(=O)[C@H](Cc1ccccc1)NC(=O)CN [Gly-Phe-DMK, Gly-Phe-diazomethylketone, reference compound] (H-Gly-Phe-CHN2)
KCN-induced necrotic cell death assessed by LDH release (PC12, KCN 5 hours, FIGS. 6, 7A-B): inhibited cell necrosis

CC(=O)Nc1nc(SCCC(=O)O)n[nH]1 [L150-1122, 3-((5-acetamido-1H-1,2,4-triazol-3-yl)thio)propanoic acid]
inhibition at 0.0001 µM: 22%
inhibition at 0.001 µM: 25%
inhibition at 0.01 µM: 30%
inhibition at 0.1 µM: 44%
inhibition at 1 µM: 68%

Cc1ccnc(Nc2nc(-c3cc(C)c(C)cc3C)cs2)c1 [M008-0111, N-(4-methylpyridin-2-yl)-4-(2,4,5-trimethylphenyl)thiazol-2-amine]
% protection at indicated concentration 0.1 nM: 29%
% protection at indicated concentration 1 nM: 36%
% protection at indicated concentration 10 nM: 38%
% protection at indicated concentration 100 nM: 46%
% protection at indicated concentration 1 μM: 90%
inhibition at 0.0001 µM: 29%
inhibition at 0.001 µM: 36%
inhibition at 0.01 µM: 38%
inhibition at 0.1 µM: 46%
inhibition at 1 µM: 90%

O=C(c1ccco1)N1CCN=C1N1CCCC1 [M059-0032, furan-2-yl(2-(pyrrolidin-1-yl)-4,5-dihydro-1H-imidazol-1-yl)methanone]
inhibition at 0.0001 µM: 7%
inhibition at 0.001 µM: 25%
inhibition at 0.01 µM: 37%
inhibition at 0.1 µM: 59%
inhibition at 1 µM: 72%

CCC(CC)C(=O)N1CCN=C1N1CCCC1 [M059-0053, 2-ethyl-1-(2-(pyrrolidin-1-yl)-4,5-dihydro-1H-imidazol-1-yl)butan-1-one]
inhibition at 1 µM: 39%

O=C(CC1CCCC1)N1CCN=C1N1CCCC1 [M059-0055, 2-cyclopentyl-1-(2-(pyrrolidin-1-yl)-4,5-dihydro-1H-imidazol-1-yl)ethanone]
inhibition at 1 µM: 68%

From patent US11945787B2, “Substituted imidazoles for preventing and/or treating cell or tissue necrosis” (Ela Pharma Ltd, priority 2015, dated 2024)
